According to US8859508B2, “Application of 5-methyl-1,3-benzenediol or derivatives thereof in the preparation of medicines and functional foods for treatment or prevention of depression” (Kunming Institute of Botany, Chinese Academy of Sciences, priority 2007, dated 2014):

Assays:
DD model mice = assay: FST in constant darkness (DD) model mice; type: in vivo, mouse; conditions: for Immobility time (s) (mean ± SEM): oral once a day for 1 week
Experimental: (§1) Kunming mice (Certificate Number: A4CXK(Chuan)2003-16) from the Institute of Experimental Animals, People's Hospital of Sichuan Province, were used. They were 3-4 weeks old at the beginning of the experiments and weighed 25-30 g. ORG was prepared as described in Example 1. Animals were divided into experimental groups with different doses, vehicle control groups, and an imipramine group (Sigma, Batch No. 106k1588) as positive control.
DD model in mice: Mice were kept under 24 h continuous dark conditions. The replacement of padding, addition of food and water, and other operations were undertaken in the condition that the intensity of red light was less than 1.0 lux. The period of this condition lasted for 28 days. In the last week, ORG was administered orally once a day for 1 week. The FST and TST were carried out 30 min after the last administration. Methods and data analysis were as described above.

rats [1] = assay: Subacute toxicity test of ORG in rats; type: in vivo
Experimental: Rats (Certificate Number: A4CXK(Chuan)2003-16) from the Institute of Experimental Animals, People's Hospital of Sichuan Province, were used. Their weight was 250-300 g. ORG was prepared as described in Example 1.
There was no significant difference between the two groups.

Kunming mice = assay: Morris water maze (MWM) in mice; type: in vivo, mouse
Experimental: Kunming mice (Certificate Number: A4CXK(Chuan)2003-16) from the Institute of Experimental Animals, People's Hospital of Sichuan Province, were used. They were 3-4 weeks old at the beginning of the experiment and weighed 25-30 g. ORG was prepared as described in Example 1. Animals were divided into drug administration groups with fluoxetine or different doses of ORG and a vehicle control group. The drug administration groups received 1.75 mg/kg or 3.5 mg/kg of ORG or 15 mg/kg of fluoxetine. Animals received a single i.p. injection of drug or vehicle 30 min either after training every day or 30 min before the retention test on day 8.
Morris water maze: The MWM was performed in a circular pool (100 cm in diameter and 36 cm in depth) with a hidden platform (10 cm×10 cm) that was approximately 1 cm below the water surface. The pool was surrounded by yellow curtains with different shaped markers hanging in each quadrant. The time spent to find the hidden platform and the trajectory of the mouse were recorded by computer. From days 1 to 7, mice were placed in the pool to find the fixed hidden platform. On day 8, the platform was removed and the time that the mouse spent in the target quadrant was counted in 1 min of free swimming.
(§2) Data analysis: The results of the test are expressed as mean±SEM. One-way ANOVA was used followed by the LSD test with SPSS 11 software. The significance level was set at P<0.05.

Sprague-Dawley rats = assay: Forced swim test (FST) in rats; type: in vivo, rat; conditions: for Immobility time (s) (mean ± SEM): i.g.
rats [2] = assay: Conditioned fear stress-induced freezing behavior test in rats; type: in vivo, rat; conditions: i.p. 24 h and 5 h before footshocks, re-exposure 24 h later
Experimental: as §1, with “experiment” for “experiments”, “drug administration” for “experimental”, “doses of ORG, a” for “doses,”, “group,” for “groups,”, “a diazepam” for “an imipramine”, “(Jinyao Ltd. Co.,” for “(Sigma,”
Footshock-induced freezing behavior: Animals received an i.p. injection of ORG or vehicle 24 h and 5 h before being placed in a standard conditioning chamber (Med Associates, USA) for a 10 min training session. Two, 4, 6, 8, and 10 min after the onset of the session, a footshock (0.8 mA, 2 s) was delivered through the grid floor of the chamber. The freezing time during the last 5 min were recorded. Rats were placed in the chamber again without footshock 24 h after the first training, and the freezing time was recorded.
as §2

[3] = test system: LTP in the CA1 area of hippocampus; assay: Long-term potentiation (LTP) recording in hippocampal slices of footshock-stressed rats; type: cell-based, rat
Experimental: Rats weighing 250-300 g, from the Institute of Experimental Animals, People's Hospital of Sichuan Province, were used. ORG was prepared as described in Example 1. Fluoxetine was from Wuhan Yuancheng Technology Co. (Wuhan, China; Batch No: 1004-0801002).
Method of long-term potentiation (LTP) recording in hippocampus: Excitatory postsynaptic potentials (EPSPs) in the hippocampus were recorded to determine the anti-stress effect of ORG. Stress impairs LTP in the CAl area of hippocampus, and this can be rescued by anti-stress drugs. Rats were stressed by footshock as follows: 1 mA, 2 s, 5 times at intervals of 2 min. Hippocampal slices were prepared, incubated for 1 h at 34-36° C., and then kept at room temperature. ORG was applied in the bath solution. EPSPs mediated by NMDA and AMPA receptors in the CA1 region were recorded until the baseline was stable for 20 min. Then high frequency stimulation (HFS, 100 Hz, 100 pulses, 20 s interval) was used to induce LTP. The EPSPs were recorded for 1 h after HFS.
Data Analysis: Data are expressed as mean±SEM and LTP is expressed as the percentage of the average amplitude of the last 10 min relative to the baseline. One-way ANOVA was used followed by the LSD test with SPSS 11 software. The significance level was set at P<0.05.

[4] = 1750 mg/kg orally once per day for 14 consecutive days

Structure (SMILES): Cc1cc(O)cc(OC2OC(CO)C(O)C(O)C2O)c1 [ORG, orcinol-1-O-β-D-glucopyranoside]
- therapeutic index = TD50÷ED50 (DD model mice; DD mice): > 1182
- Immobility time (s) (mean ± SEM) (DD model mice; DD mice, 2.5 mg/kg): 174.27 ± 11.89 s
- Immobility time (s) (mean ± SEM) (DD model mice; DD mice, 5 mg/kg): 161.70 ± 14.89 s
- Immobility time (s) (mean ± SEM) (DD model mice; DD mice, 10 mg/kg): 151.86 ± 8.89 s
- Immobility time (s) (mean ± SEM) (DD model mice; DD mice, 40 mg/kg): 156.60 ± 13.86 s
- Immobility time (s) (mean ± SEM) (DD model mice; DD mice, test 30 min after last dose, 1.25 mg/kg): 180.27 ± 10.36 s
- dose of the best efficacy (DD model mice; DD model mice, ORG oral): 10 mg/kg
- ED50 (DD model mice; Mus musculus, DD model mice, ORG oral): ~1.48 mg/kg
- subacute toxicity: appearance, behavior, mental status, appetite, hair, color, breathing (rats [1]; [4]): nothing abnormal was found
- subacute toxicity: survival (rats [1]; [4]): All rats survived
- subacute toxicity: weight gain (rats [1]; [4]): the weight gain was normal
- subacute toxicity: pathological section of visceral organs (rats [1]; 1750 mg/kg orally once per day for 14 days, sacrificed on day 14): no evident abnormalities
- Time spent in the right quadrant (s) (mean ± SEM) (Kunming mice; i.p. 30 min before retrieval on day 8, 1.75 mg/kg): 29.38 ± 2.16 s
- Time spent in the right quadrant (s) (mean ± SEM) (Kunming mice; i.p. 30 min before retrieval on day 8, 3.5 mg/kg): 35.52 ± 2.43 s
- Time spent in the right quadrant (s) (mean ± SEM) (Kunming mice; i.p. daily 30 min after training, retention test day 8, 1.75 mg/kg): 28.18 ± 1.70 s
- Time spent in the right quadrant (s) (mean ± SEM) (Kunming mice; i.p. daily 30 min after training, retention test day 8, 3.5 mg/kg): 34.24 ± 2.01 s
- dose of the best efficacy (Sprague-Dawley rats; ORG administered orally): 4 mg/kg
- ED50 (Sprague-Dawley rats; Rattus norvegicus, po, ORG administered orally): ~0.22 mg/kg
- Immobility time (s) (mean ± SEM) (Sprague-Dawley rats; 0.0625 mg/kg, given at 0 and 19 h after pre-test swim): 187.20 ± 11.97 s
- Immobility time (s) (mean ± SEM) (Sprague-Dawley rats; 0.125 mg/kg): 181.50 ± 8.19 s
- Immobility time (s) (mean ± SEM) (Sprague-Dawley rats; 0.1875 mg/kg): 138.90 ± 13.31 s
- Immobility time (s) (mean ± SEM) (Sprague-Dawley rats; 0.25 mg/kg): 121.05 ± 9.44 s
- Immobility time (s) (mean ± SEM) (Sprague-Dawley rats; 0.5 mg/kg): 113.70 ± 6.74 s
- Immobility time (s) (mean ± SEM) (Sprague-Dawley rats; 1 mg/kg): 96.87 ± 7.40 s
- Immobility time (s) (mean ± SEM) (Sprague-Dawley rats; 2 mg/kg): 91.60 ± 7.06 s
- Immobility time (s) (mean ± SEM) (Sprague-Dawley rats; 4 mg/kg): 84.40 ± 9.20 s
- Immobility time (s) (mean ± SEM) (Sprague-Dawley rats; 8 mg/kg): 94.30 ± 9.86 s
- Immobility time (s) (mean ± SEM) (Sprague-Dawley rats; 16 mg/kg): 91.40 ± 11.36 s
- Immobility time (s) (mean ± SEM) (Sprague-Dawley rats; 32 mg/kg): 107.26 ± 10.74 s
- Immobility time (s) (mean ± SEM) (Sprague-Dawley rats; 64 mg/kg): 105.90 ± 19.77 s
- Immobility time (s) (mean ± SEM) (Sprague-Dawley rats; 128 mg/kg): 103.00 ± 17.42 s
- Duration of freezing (s) (mean ± SEM) (rats [2]; 5 mg/kg): 310.30 ± 66.19 s
- Duration of freezing (s) (mean ± SEM) (rats [2]; 20 mg/kg): 95.00 ± 17.73 s
- LTP, Average of last 10 min (mean ± SEM) ([3]; control (non-stressed) slices incubated with 5 μM, percentage of average EPSP amplitude of last 10 min relative to baseline): 122.93 ± 3.75
- LTP, Average of last 10 min (mean ± SEM) ([3]; footshock (FS) stressed rat slices incubated with 50 nM, percentage relative to baseline): 128.99 ± 7.30
- LTP, Average of last 10 min (mean ± SEM) ([3]; footshock (FS) stressed rat slices incubated with 5 μM, percentage relative to baseline): 189.56 ± 23.6
